{"source": "patent US10799467B2", "about": "“Use of the phytocannabinoid cannabidivarin (CBDV) in the treatment of epilepsy” (GW Pharma Limited, priority 2010, dated 2020)", "key": {"MES-induced seizure": {"tested_on": "MES-induced seizure", "assay": "Maximal electroshock seizure (MES) model of epilepsy", "assay_type": "in vivo, Mouse/ICR", "conditions": "for Incidence of Tonic convulsion: Table 10.2, 10 mice per group, vehicle 9/10", "procedure": "The vehicle used in this study was 2:1:17 (ethanol:Cremophor:0.9% ^w/v, NaCl). The test compounds used were cannabidiol (CBD) and cannabidivarin (CBDV). These were made to a solution at the highest concentration; these were then dissolved in ethanol before combination with Cremophor and 0.9% NaCl in the proportion described above. The CBD or CBDV were administered intraperitoneally at a volume of 10 ml/kg body weight. The SAED valproic acid (VBA) was dissolved in saline.\nAnimal Species/Strain: Mouse/ICR, Microbiological grade: SPF, Supplier: SLC Japan, Inc. […] Temperature: 23±2° C., Humidity: 60±10%, Light conditions: 7 AM to 7 PM for the light period, 7 PM to 7 AM for the dark period. Chow and water: Free access to CRF-1 (Oriental Yeast Co, Ltd) and tap water.\nOne day before each experiment, mice were weighed and randomized into several groups in each test. On the morning of the experiment day, body weight was measured in order to calculate the administration volume of each animal. Vehicle, CBD, CBDV or valproic acid sodium salt was interperitoneally administered 30 minutes before electric stimuli. Maximal electroshock seizures (MES) in mice was induced by a stimulator (UGO BASILE ECT UNIT 7801, Italia) using a current of 30 mA delivered with a pulse frequency of 100 Hz for 200 msec through earlap electrodes.\nAll statistical analyses were performed using SAS Software for Windows, Release 9.1 (SAS Institute Japan). The difference of the number (hindlimb extension or deaths) in each group was assessed using two-tailed Fisher's exact test."}, "[1]": {"tested_on": "pilocarpine-induced seizures", "assay": "CBDV with standard anti-epileptic drugs in the pilocarpine model of epilepsy", "assay_type": "in vivo", "source_text": "These two drugs are representative of two classes of anti-convulsants which have different mechanisms of action."}, "[2]": {"assay": "Observation of side effects in all experiments with isolated CBDV and CBDV BDS", "assay_type": "in vivo", "conditions": "all experiments using isolated CBDV and CBDV BDS"}, "PTZ-induced seizures [3]": {"tested_on": "PTZ-induced seizures", "assay": "PTZ model of generalised seizures (80 mg/kg PTZ)", "assay_type": "in vivo, Wistar rats", "conditions": "for proportion of animals that died / proportion of animals reaching tonic-clonic seizures: vehicle 8 of 15", "procedure": "Male Wistar rats (P24-29; 75-110 g) were used to assess the effects of the phytocannabinoid CBDV in the PTZ model of generalised seizures. Animals were habituated to the test environment, cages, injection protocol and handling prior to experimentation. Animals were housed in a room at 21° C. on a 12 hour light: dark cycle (lights on 0900) in 50% humidity, with free access to food and water.\nFive 6 L Perspex tanks with lids were placed on a single bench with dividers between them. Closed-circuit television (CCTV) cameras were mounted onto the dividers to observe rat behaviour. Sony Topica CCD cameras (Bluecherry, USA) were linked via BNC cables to a low-noise PC via Brooktree digital capture cards (Bluecherry, USA). Zoneminder (http://www.zoneminder.com) software was used to monitor rats, start and end recordings and manage video files. In-house Linux scripts were used to encode video files into a suitable format for further offline analysis using The Observer (Noldus Technologies).\nA range of doses of PTZ (50-100 mg/kg body weight) were used to determine the best dose for induction of seizures (see below). As a result, a dose of 80 mg/kg injected intra-peritoneally (IP; stock solution 50 mg/ml in 0.9% saline) were used to screen the CBDV.\nOn the day of testing, pure CBDV was administered via intra-peritoneal (i.p.) injection at doses of 50, 100 and 200 mg/kg alongside animals that were injected with a matched volume of the cannabinoid vehicle (2:1:17 ethanol:Cremophor: 0.9% w/v NaCl solution), which served as the negative control group. Animals were then observed for 1 hour, after which time they received an IP injection of 80 mg/kg PTZ. Negative vehicle controls were performed in parallel with cannabinoid-dosed subjects. After receiving a dose of PTZ, animals were observed and videoed to determine the severity of seizure and latency to several seizure behaviour types (see in vivo analysis, below). Animals were filmed for half an hour after last sign of seizure, and then returned to their cage.\nAnimals were observed during experimental procedures, but all analysis was performed offline on recorded video files using The Observer behavioural analysis software (Noldus, Netherlands). A seizure severity scoring system was used to determine the levels of seizure experienced by subjects (Pohl & Mares, 1987). All signs of seizure were detailed for all animals.\nThe latency (in seconds) from injection of PTZ to first myoclonic jerk (FMJ; score of 1), and to the animal attaining “forelimb clonus with tonic component and body twist” (score of 3.5) were recorded. FMJ is an indicator of the onset of seizure activity, whilst >90% of animals developed scores of 3.5, and so is a good marker of the development of more severe seizures. Data are presented as the mean±S.E.M. within an experimental group.\nThis is given as the median value for each experimental group based on the scoring scale below.\nThe percentage of animals within an experimental group that died as a result of PTZ-induced seizures. Note that the majority of animals that developed tonic-clonic seizures (scores of 4 and 5) died as a result, and that a score of 6 (death) automatically denotes that the animal also experienced tonic-clonic seizures.\nThis is given as the mean±S.E.M. for each experimental group.\nFor measures of latency and severity, one way analysis of variance (ANOVA) was performed on the four groups together (vehicle and 50, 100 and 200 mg/kg CBDV) to detect overall effects of CBDV (p≤0.05 considered significant).\nSignificant ANOVA results were followed by post hoc tests to test differences between vehicle and drug groups (Tukey's test, p≤0.05 considered significant).\nMethodology as described in Example 2.\nGeneral methodology is as described in Example 2.\nThree doses of THCV BDS were assessed against a concentration of PTZ known to induce moderate seizures in rats (70 mg/kg; see pilot, above). […]"}, "PTZ-induced seizures [4]": {"tested_on": "PTZ-induced seizures", "assay": "CBDV with standard anti-epileptic drugs in the PTZ model of generalised seizures", "assay_type": "in vivo, Wistar rats", "procedure": "As described in Example 2 above. Varying doses of the SAED's ethosuximide and valproate were tested in combination to isolated CBDV at a dose of 200 mg/kg."}, "[5]": {"conditions": "CBDV 200 mg/kg with valproate at various doses"}, "[6]": {"conditions": "valproate (varying doses) co-administered with CBDV 200 mg/kg"}}, "note": "Marks after values point to notes of the source that are not given here.", "data": [{"smiles": "C=C(C)[C@@H]1CCC(C)=C[C@H]1c1c(O)cc(CCC)cc1O", "note": "[CBDV, Cannabidivarin]", "values": [{"measurement": "Incidence of Tonic convulsion", "setting": "MES-induced seizure; 50 mg/kg i.p.", "value": "9/10"}, {"measurement": "Incidence of Tonic convulsion", "setting": "MES-induced seizure; 100 mg/kg i.p.", "value": "3/10*"}, {"measurement": "Incidence of Tonic convulsion", "setting": "MES-induced seizure; 200 mg/kg i.p.", "value": "3/10*"}, {"measurement": "inhibition of the expression of hindlimb extension", "setting": "MES-induced seizure; CBDV 100 and 200 mg/kg IP", "value": "significantly inhibited"}, {"measurement": "seizure severity", "setting": "[1]; CBDV 200 mg/kg with phenobarbital at various doses", "value": "significantly decreases"}, {"measurement": "mortality (independent effect)", "setting": "[1]; [5]", "value": "significant decrease"}, {"measurement": "seizure severity (independent effect)", "setting": "[1]; [5]", "value": "independent and positive effects"}, {"measurement": "bilateral seizure incidence", "setting": "[1]; CBDV 200 mg/kg, particularly with high dose Valproate (250 mg/kg)", "value": "significantly decreased"}, {"measurement": "CBDV interaction (alone) with clonic tonic seizure", "setting": "[1]; CBDV 200 mg/kg, valproate study", "value": "statistically significant"}, {"measurement": "notable side effects", "setting": "[2]", "value": "did not exhibit any notable side effects"}, {"measurement": "proportion of animals that died", "setting": "PTZ-induced seizures [3]; 100 mg/kg CBDV i.p., 80 mg/kg PTZ, p=0.002", "value": "1 out of 15"}, {"measurement": "proportion of animals reaching tonic-clonic seizures", "setting": "PTZ-induced seizures [3]; 100 mg/kg CBDV i.p., 80 mg/kg PTZ, p=0.036", "value": "4 of 15"}, {"measurement": "latency to seizure onset vs vehicle", "setting": "PTZ-induced seizures [3]; 200 mg/kg CBDV i.p. 1 hour before 80 mg/kg PTZ, p=0.03", "value": "significantly higher"}, {"measurement": "median seizure severity vs vehicle", "setting": "PTZ-induced seizures [3]; 200 mg/kg CBDV i.p., 80 mg/kg PTZ, p=0.014", "value": "significantly lower"}, {"measurement": "latency to clonic seizures vs vehicle", "setting": "PTZ-induced seizures [3]; 200 mg/kg CBDV i.p., 80 mg/kg PTZ, p=0.032", "value": "significant increase"}, {"measurement": "animals that experienced no seizure at all", "setting": "PTZ-induced seizures [3]; 200 mg/kg CBDV i.p., 80 mg/kg PTZ, vehicle 1 of 15, p=0.003", "value": "5 of 15"}, {"measurement": "proportion of animals that died", "setting": "PTZ-induced seizures [3]; 200 mg/kg CBDV i.p., 80 mg/kg PTZ, p<0.001", "value": "2 out of 15"}, {"measurement": "proportion of animals reaching tonic-clonic seizures", "setting": "PTZ-induced seizures [3]; 200 mg/kg CBDV i.p., 80 mg/kg PTZ, p=0.01", "value": "3 of 15"}, {"measurement": "latency to tonic-clonic seizures", "setting": "PTZ-induced seizures [3]; overall or at any specific dose (50, 100, 200 mg/kg CBDV i.p.), 80 mg/kg PTZ", "value": "No significant effect"}, {"measurement": "severity of the epilepsy, CBDV compared with SAED", "setting": "PTZ-induced seizures [4]; CBDV 200 mg/kg", "value": "lessen the severity of the epilepsy to a greater degree than the existing epileptic drug valproate"}, {"measurement": "mortality (independent effect when co-administered)", "setting": "PTZ-induced seizures [4]; [6]", "value": "significant decreases"}, {"measurement": "onset latency (independent effect when co-administered)", "setting": "PTZ-induced seizures [4]; [6]", "value": "significant decreases"}, {"measurement": "seizure severity (independent effect when co-administered)", "setting": "PTZ-induced seizures [4]; [6]", "value": "significant decreases"}]}]}
